Test results reported in patent US9815787B2, “Sulfonamide derivative or pharmaceutically acceptable acid addition salt thereof” (UNIVERSITY OF TSUKUBA, priority 2013, dated 2017).

Target: T1, OX2R (Homo sapiens, UniProt O43614)
T1 construct: expressed in transfected cells; host or cells: CHO (Chinese hamster ovary) cells constitutively expressing the OX2R gene and NFAT-luciferase (CHOOX2R)
T1 sequence (O43614 1-444): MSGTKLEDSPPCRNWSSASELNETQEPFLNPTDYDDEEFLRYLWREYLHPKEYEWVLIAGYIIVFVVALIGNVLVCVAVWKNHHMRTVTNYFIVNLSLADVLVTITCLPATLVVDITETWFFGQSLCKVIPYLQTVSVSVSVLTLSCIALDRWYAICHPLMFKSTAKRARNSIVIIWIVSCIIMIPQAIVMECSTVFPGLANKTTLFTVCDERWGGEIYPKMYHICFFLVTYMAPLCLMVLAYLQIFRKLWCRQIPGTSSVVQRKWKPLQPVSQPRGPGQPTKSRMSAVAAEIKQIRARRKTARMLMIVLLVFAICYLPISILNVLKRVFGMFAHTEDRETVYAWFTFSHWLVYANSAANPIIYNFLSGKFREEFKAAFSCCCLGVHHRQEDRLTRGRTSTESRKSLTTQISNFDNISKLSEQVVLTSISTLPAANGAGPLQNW
Assay: Evaluation of agonist activity against OX2R (CHOOX2R cells, Fura2AM fluorescence, FDSS3000)
Assay type: cell-based
Outline: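 CHO cells stably expressing human OX2R (and NFAT-luciferase), cultured 48 h in 5% FBS DMEM. Agonist response read as change in Fura2AM fluorescence on compound addition in HEPES buffer. Final compound concentrations 0.1, 1.0 or 10 μM; 1% DMSO.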

[1] = test compound 0.1 μM; relative to orexin-A as full agonist (100%); CHOOX2R cells
[2] = test compound 1.0 μM; relative to orexin-A as full agonist (100%); CHOOX2R cells
[3] = test compound 10 μM; relative to orexin-A as full agonist (100%); CHOOX2R cells
[4] = OX2R agonist activity; CHOOX2R cells
[5] = conversion with orexin-A as full agonist (maximum agonist activity 100%)
[6] = test compound 0.1 μM; CHOOX2R cells; relative to orexin-A as full agonist (100%)
[7] = test compound 1.0 μM; CHOOX2R cells; relative to orexin-A as full agonist (100%)
[8] = test compound 10 μM; CHOOX2R cells; relative to orexin-A as full agonist (100%)

Compound | Response (0.1 μM (%)) [1] | Response (1.0 μM (%)) [2] | Response (10 μM (%)) [3] | EC50 [4] | Emax [5] | Response (0.1 μM (%)) [6] | Response (1.0 μM (%)) [7] | Response (10 μM (%)) [8]
COc1cccc(C(=O)NCCNc2cccc(NS(=O)(=O)c3cc(-c4c(F)cccc4F)ccc3OC)c2)c1 [Example 18, N-(2-((3-(2′,6′-difluoro-4-methoxy-[1,1′-biphenyl]-3-ylsulfonamide)phenyl)amino)ethyl)-3-methoxybenzamide] | <5% | 13% | 151% |  |  |  |  | 
COc1ccccc1C(=O)NCCNc1cccc(NS(=O)(=O)c2cccc(-c3cccc(C(=O)N(C)C)c3)c2)c1 [Example 110, 3′-(N-(3-((2-(2-methoxybenzamido)ethyl)amino)phenyl)sulfamoyl)-N,N-dimethyl-[1,1′-biphenyl]-3-carboxamide] | <5% | <5% | 28% |  |  |  |  | 
COc1ccccc1C(=O)NCCNc1cccc(NS(=O)(=O)c2cc(-c3cccc(C(=O)N4CCC4)c3)ccc2OC)c1 [Example 81, N-(2-((3-(3′-(azetidine-1-carbonyl)-4-methoxy-[1,1′-biphenyl]-3-ylsulfonamido)phenyl)amino)ethyl)-2-methoxybenzamide] |  |  |  | 365 nM | 85% | 75% | 98% | 98%
COc1ccc(-c2cccc(C(=O)N(C)C)c2)cc1S(=O)(=O)Nc1cccc(NCCNC(=O)c2c(F)cccc2OC)c1 [Example 70, 3′-(N-(3-((2-(2-fluoro-6-methoxybenzamido)ethyl)amino)phenyl)sulfamoyl)-4′-methoxy-N,N-dimethyl-[1,1′-biphenyl]-3-carboxamide] |  |  |  |  |  | 34% | 105% | 85%
COc1ccc(-c2cccc(C(=O)N(C)C)c2)cc1S(=O)(=O)Nc1cccc(NCCNC(=O)c2ccccc2F)c1 [Example 43, 3′-(N-(3-((2-(2-fluorobenzamido)ethyl)amino)phenyl)sulfamoyl)-4′-methoxy-N,N-dimethyl-[1,1′-biphenyl]-3-carboxamide] |  |  |  | 300 nM | 94% | <5% | 55% | 94%
COc1ccccc1C(=O)NCCNc1cccc(NS(=O)(=O)c2cc(-c3cccc(C(=O)N(C)C)c3)ccc2F)c1 [Example 107, 4′-fluoro-3′-(N-(3-((2-(2-methoxybenzamido)ethyl)amino)phenyl)sulfamoyl)-N,N-dimethyl-[1,1′-biphenyl]-3-carboxamide] | 65% | 79% | 82% |  |  |  |  | 
COc1ccc(-c2cccc(C(=O)N(C)C)c2)cc1S(=O)(=O)Nc1cccc(NCCNC(=O)c2ccccc2C)c1 [Example 65, 4′-methoxy-N,N-dimethyl-3′-(N-(3-((2-(2-methylbenzamido)ethyl)amino)phenyl)sulfamoyl)-[1,1′-biphenyl]-3-carboxamide] |  |  |  | 800 nM | 85% | 74% | 96% | 74%
COc1ccc(-c2cccc(C(=O)N(C)C)c2)cc1S(=O)(=O)Nc1cccc(NCCNC(=O)c2c(F)cccc2F)c1 [Example 45, 3′-(N-(3-((2-(2,6-difluorobenzamido)ethyl)amino)phenyl)sulfamoyl)-4′-methoxy-N,N-dimethyl-[1,1′-biphenyl]-3-carboxamide] |  |  |  | 115 nM | 100% | <5% | 80% | 98%
COc1ccc(-c2cccc(C(=O)N(C)C)c2)cc1S(=O)(=O)Nc1cccc(NCCNC(=O)c2cn(C)cn2)c1 [Example 64, N-(2-((3-(3′-(dimethylcarbamoyl)-4-methoxy-[1,1′-biphenyl]-3-ylsulfonamido)phenyl)amino)ethyl)-1-methyl-1H-imidazole-4-carboxamide] |  |  |  |  |  | <5% | 68% | 72%
COc1ccc(Br)cc1C(=O)NCCNc1cccc(NS(=O)(=O)c2cc(-c3ccccc3F)ccc2OC)c1 [Example 4, 5-bromo-N-(2-((3-(2′-fluoro-4-methoxy-[1,1′-biphenyl]-3-ylsulfonamide)phenyl)amino)ethyl)-2-methoxybenzamide] | <5% | <5% | 17% |  |  |  |  | 
COc1cccc(C(=O)NCCNc2cccc(NS(=O)(=O)c3cc(-c4ccccc4OC)ccc3OC)c2)c1 [Example 13, N-(2-((3-(2′,4-dimethoxy-[1,1′-biphenyl]-3-ylsulfonamide)phenyl)amino)ethyl)-3-methoxybenzamide] | <5% | 64% | 99% |  |  |  |  | 
COc1cccc(-c2ccc(OC)c(S(=O)(=O)Nc3cccc(NCCNC(=O)c4ccccc4OC)c3)c2)n1 [Example 94, 2-methoxy-N-(2-((3-(2-methoxy-5-(6-methoxypyridin-2-yl)phenylsulfonamido)phenyl)amino)ethyl)benzamide] |  |  |  |  |  | <5% | <5% | 22%
COc1cccc(C(=O)NCCNc2cccc(NS(=O)(=O)c3cc(-c4ncccc4F)ccc3OC)c2)c1 [Example 93, N-(2-((3-(5-(3-fluoropyridin-2-yl)-2-methoxyphenylsulfonamido)phenyl)amino)ethyl)-3-methoxybenzamide] |  |  |  |  |  | <5% | 33% | 73%
COc1ccc(-c2cccc(C(=O)N(C)C)c2)cc1S(=O)(=O)Nc1cccc(NCCNC(=O)c2cc(F)cc(F)c2)c1 [Example 54, 3′-(N-(3-((2-(3,5-difluorobenzamido)ethyl)amino)phenyl)sulfamoyl)-4′-methoxy-N,N-dimethyl-[1,1′-biphenyl]-3-carboxamide] |  |  |  | 630 nM | 94% | 33% | 168% | 126%
COc1ccc(C(=O)NCCNc2cccc(NS(=O)(=O)c3cc(-c4ccccc4F)ccc3OC)c2)cc1 [Example 3, N-(2-((3-(2′-fluoro-4-methoxy-[1,1′-biphenyl]-3-ylsulfonamide)phenyl)amino)ethyl)-4-methoxybenzamide] | <5% | 11% | 50% |  |  |  |  | 
COc1ccc(-c2cccc(C(=O)N3CCCC3)c2)cc1S(=O)(=O)Nc1cccc(NCCNC(=O)c2c(F)cccc2F)c1 [Example 88, 2,6-difluoro-N-(2-((3-(4-methoxy-3′-(pyrrolidine-1-carbonyl)-[1,1′-biphenyl]-3-ylsulfonamido)phenyl)amino)ethyl)benzamide] |  |  |  |  |  | 76% | 100% | 86%
COc1ccccc1C(=O)NCCNc1cccc(NS(=O)(=O)c2cc(-c3ccccc3F)ccc2OC)c1 [Example 1, N-(2-((3-(2′-fluoro-4-methoxy-[1,1′-biphenyl]-3-ylsulfonamide)phenyl)amino)ethyl)-2-methoxybenzamide] | <5% | 21% | 57% |  |  |  |  | 
COc1cccc(C(=O)NCCNc2cccc(NS(=O)(=O)c3cc(-c4c(F)cccc4OC)ccc3OC)c2)c1 [Example 24, N-(2-((3-(2′-fluoro-4,6′-dimethoxy-[1,1′-biphenyl]-3-ylsulfonamide)phenyl)amino)ethyl)-3-methoxybenzamide] | <5% | <5% | <5% |  |  |  |  | 
COc1ccc(-c2cccc(C(=O)N(C)C)c2)cc1S(=O)(=O)Nc1cccc(NCCNC(=O)c2ccccc2C(F)(F)F)c1 [Example 69, 4′-methoxy-N,N-dimethyl-3′-(N-(3-((2-(2-(trifluoromethyl)benzamido)ethyl)amino)phenyl)sulfamoyl)-[1,1′-biphenyl]-3-carboxamide] |  |  |  |  |  | 67% | 123% | 111%
